According to the CheMixHub ionic liquid set:
± gives the uncertainty stated by the source.

Assay: xn = mol fraction of the nth substance listed

CCCCCCCC(=O)[O-].c1c[nH+]c[nH]1 + CC#N
101.3 kPa
Settings | viscosity [mPa·s]
293.15 K, x2 = 0.298 | 37.82 ± 0.87
293.15 K, x2 = 0.499 | 17.94 ± 0.42
293.15 K, x2 = 0.5995 | 10.6 ± 0.27
293.15 K, x2 = 0.8996 | 1.201 ± 0.039
303.15 K, x2 = 0 | 56.48 ± 0.89
303.15 K, x2 = 0.1044 | 45.4 ± 1
303.15 K, x2 = 0.5995 | 9.6 ± 0.24
308.15 K, x2 = 0.499 | 12.8 ± 0.31
318.15 K, x2 = 0.298 | 18.21 ± 0.43
318.15 K, x2 = 0.4005 | 14.1 ± 0.34
323.15 K, x2 = 0.499 | 10.2 ± 0.25
323.15 K, x2 = 0.5995 | 7.6 ± 0.2

CC(=O)[O-].C[NH+]1CCOCC1 + CC(=O)[O-].Cn1cc[nH+]c1
Settings | electrical conductivity [S/m]
298.15 K, 100 kPa, x2 = 0.71 | 0.274 ± 0.0055

CCCCCC[n+]1ccn(C)c1.[Br-] + NC(N)=O + O
298.15 K, 100 kPa
Settings | viscosity [mPa·s]
x2 = 0, x3 = 0.9008 | 6.89 ± 0.35
x2 = 0, x3 = 0.9487 | 2.88 ± 0.15
x2 = 0.008076, x3 = 0.8927 | 6.77 ± 0.34
x2 = 0.008492, x3 = 0.9402 | 2.97 ± 0.15
x2 = 0.01609, x3 = 0.8847 | 6.7 ± 0.34
x2 = 0.01695, x3 = 0.9318 | 2.98 ± 0.15
x2 = 0.02496, x3 = 0.9237 | 2.95 ± 0.15
x2 = 0.02678, x3 = 0.9219 | 2.96 ± 0.15
x2 = 0.03154, x3 = 0.8693 | 6.78 ± 0.34
x2 = 0.03322, x3 = 0.9155 | 2.98 ± 0.15
x2 = 0.03874, x3 = 0.8621 | 6.76 ± 0.34
x2 = 0.0408, x3 = 0.9079 | 3.02 ± 0.16
